# Measurements published in patent publication US6890954B1, “Uses of 2-bromopalmitate in the treatment of autoimmune disease” (priority 1999, dated 2005).
# Experiments:
# Type in all cases: cell-based
# MAP kinase = assay: Activation of MAP kinase in Jurkat cells (pERK immunoblot); conditions: OKT3 activated, pERK1 blot
# Description: Jurkat cells were treated with 2-bromopalmitate and activated as described above. Lysates were analyzed for the presence of active MAP kinase by immunoblotting with a pERK antibody, and for total MAP kinase by immunoblotting with an anti MAPK antibody.
# One of the proximal events following T cell receptor engagement is activation of the MAP Kinase pathway. The ability of 2-bromopalmitate to inhibit activation of MAP kinase was examined in Jurkat cells. Cells were cultured with or without 2bromo-palmitate and activated as described above. Cell lysates were subjected to SDS-PAGE and immunoblotted with anti-active MAPK kinase (pERK1). As depicted in FIG. 7, 2-bromopalmitate inhibited the activation of MAPK kinase by 70%. The levels of total MAPK kinase remained unchanged (FIG. 7).
# Fyn = assay: DRM (raft) localization in activated Jurkat cells, sucrose gradient: Fyn; conditions: 100 μM 3 hours, OKT3 activated, control 88%
# Description: Isolation of Triton X-100 resistant and soluble fractions was carried out as described previously (12). Isolation of detergent resistant microdomains by sucrose gradients were carried out as follows (19): Jurkat cells (5×10^7) were treated with 2-bromopalmitate, activated with OKT3 mAb as described above, and lysed in 1 ml lysis buffer (25 mM MES pH 6.5, 150 mM NaCl, 0.5% Triton X-100, 1 mM Na3VO4) supplemented with protease inhibitors for 30 minutes at 0° C. After homogenizing 10 times with a loose fit Dounce homogenizer, lysates were mixed with 1 ml 85% sucrose in MBS (25 mM MES pH 6.5, 150 mM NaCl), and overlayered with 6 ml 30% sucrose in MBS, then with 4 ml 5% sucrose in MBS. Following centrifugation for 16 hours at 145,000 g in an SW40 rotor, 1 ml fractions were collected and analyzed by PAGE and immunoblotting with anti-Fyn, anti-LAT, or anti-Lck antibodies.
# The ability of 2-bromopalmitate to inhibit localization of palmitoylated proteins to detergent resistant microdomains in activated Jurkat cells was examined next. Cells were either left untreated or treated with 100 μM 2-bromopalmitate for 3 hours, washed, resuspended in serum-free media, and the TCR was activated with OKT3 mAb. Activated cells were extracted with Triton X-100 containing buffer. […] Each fraction was analyzed by immunoblotting with specific antibodies. […]
# [1] = system: G2A,C3SFyn-HRas and G12V H-Ras; assay: Membrane localization of the two Ras constructs in COS-1 cells; conditions: COS-1, 2-bromopalmitate overnight
# Description: Analysis of the G2A,C3S Fyn-HRas chimera was performed according to the procedure described above. Analysis of the G12V HRas construct was according to the procedure described above, except that the samples were not immunoprecipiated, and were subjected to immunoblotting with anti-HRas antibody.
# Each of these three sequences was appended onto the Fyn protein. Gαo(10)-Fyn and GAP43(10)-Fyn are chimeric constructs with the first 10 amino acids of Gαo or GAP-43, respectively, in place of the first 10 amino acids of wt Fyn. These constructs have been previously described (12,13). In addition, the H-Ras tail was fused to the C-terminus of a non-acylated Fyn mutant (G2A,C3SFyn-HRas). This construct contains full length Fyn with mutations in the N-terminal myristoylation and palmitoylation sites, but with the C-terminus of H-Ras available for prenylation and palmitoylation.
# Finally, an oncogenic G12V full length H-Ras construct was tested. […] In contrast, 2-bromopalmitate had only a minimal effect on the membrane localization of the two Ras constructs, inducing a 10-20% shift from membrane to cytosol (FIGS. 3C and D). The G12V H-Ras construct migrates as a doublet on a gel. The slower migrating form represents the non-processed cytosolic form of H-Ras, and the faster migrating form represents the processed Ras, which is membrane bound.
# [2] = system: T cell receptor signaling; assay: TCR-mediated tyrosine phosphorylation in Jurkat T cells (anti-phosphotyrosine immunoblot)
# Description: Jurkat T cells (2×10^6−1×10^7) were centrifuged at 1,000×g for 5 minutes, rinsed with RPMI, resuspended in RPMI supplemented with 2% dialyzed FBS, 0.5% defatted BSA, and incubated with or without 100 μM 2-bromopalmitate at 8×10^5 cells/ml for 3 hours. The cells were centrifuged, washed with RPMI and resuspended in RPMI at 1×10^7−1×10^8 cells/ml. The cells were then activated with anti-CD3 OKT3 mAb (0.3 mg/ml) for 3 min at 37° C., quickly spun down, washed once with cold RPMI and once with cold STE, and lysed in RIPA Samples were solubilized in 1× sample buffer containing 5% β-mercaptoethanol and subjected to SDS-PAGE, followed by immunoblotting with anti-phosphotyrosine antibody (PY99). For analysis of specific proteins, RIPA lysates were immunoprecipitated with the specific antibodies O/N, and immunoblotted for phosphotyrosine. Alternatively, proteins were immunoprecipitated with agarose-conjugated anti phosphotyrosine antibody and blotted for the specific proteins.
# Jurkat cells were incubated with 2-bromopalmitate and activated with OKT3 anti-CD3 antibody. Cell lysates were analyzed by immunoblotting with anti phosphotyrosine antibodies. In control cells, stimulation with OKT3 antibodies induced tyrosine phosphorylation of multiple proteins (Fig 5A). […] The most dramatic effect was on a 36 kDa protein, which represents LAT (see below).
smiles,measurement,setting,value
CCCCCCCCCCCCCCC(Br)C(=O)O (stereo not drawn) [2-bromopalmitate],activation of MAPK kinase inhibited,MAP kinase,70%
same,Fyn found in the rafts,Fyn,59%
same,shift from membrane to cytosol of the two Ras constructs,[1],10-20%
same,OKT3-induced tyrosine phosphorylation of several proteins,"[2]; 100 μM 3 hours, OKT3 3 min",significantly inhibited
same,"reduction of tyrosine phosphorylation on the signaling molecules examined, basal activation taken into account",[2]; FIG. 5B,70-100%
same,"tyrosine phosphorylation in the presence of 2-bromopalmitate alone (no stimulation), some proteins",[2]; unactivated,Low to moderate increases
